Measurements taken from patent publication US20250136722A1, “CYTOTOXICITY TARGETING CHIMERAS” (GLAXOSMITHKLINE INTELLECTUAL PROPERTY DEVELOPMENT LIMITED, priority 2021, published 2025).
Several values for one entry are separate records, joined by “and”; a condition that tells them apart may be missing. Identical values can stand only once.

Columns and labels:
[1] = biological target: Anti-cotinine antibody (SEQ ID NO: 11 / SEQ ID NO: 12, rabbit variable region with human IgG1 Fc domain); experiment: Binding of anti-cotinine antibody to ARM compounds by SPR, Biacore T200, 37° C. (Example 202); conditions: pH 7.4, rabbit variable region/human IgG1 Fc antibody captured on protein A
Summary of the method: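 Run at 37° C. in 10 mM HEPES pH 7.4, 150 mM NaCl, 0.005% P20, 1% DMSO. Compound titrated from 200 nM (five 3-fold steps) over protein A-captured antibody, with 200/2000 s association/dissociation. 1:1 kinetic fit gave kon, koff, Kd and residence time (1/koff); pKd averaged where runs repeated.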

[2] = biological target: T1, CHOK1 cells engineered to overexpress human CCR2 (Homo sapiens, UniProt P41597); experiment: Antibody dependent cellular cytotoxicity (ADCC) reporter assay (Example 199); format: cell-based; conditions: with anti-cotinine antibody SEQ ID NO: 11/12; CHOK1-human CCR2 target cells, Jurkat FcγRIIIa NFAT-luciferase reporter cells; 12-18 hours; read-out: ADCC Reporter Assay pEC50 (converted)
T1 construct: expressed in transfected cells; host or cells: CHOK1 cells
Summary of the method: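 Potency is reported as pEC50 from a nonlinear fit, averaged over runs, using luciferase signal divided by that of compound-free wells. The readout comes from NFAT-luciferase Jurkat cells expressing FcγRIIIa, mixed for 12–18 h with human CCR2-overexpressing CHOK1 cells, 1 pM–10 μM ARM compound and 0.01–200 μg/mL Fc-enhanced anti-cotinine IgG1.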

[3] = biological target: human alpha1 nicotinic acetylcholine (nACh) receptor (Homo sapiens, UniProt P02708+Q07001); experiment: Nicotinic acetylcholine receptor antagonism assay, IONFlux automated patch clamp (Example 203); format: cell-based; conditions: for Emax at 100 µM: maximum percentage antagonism at maximum concentration tested 100 μM; for Emax at 100 µM / Emax at 10 µM: read-out: Maximum Response (%); for IC50: nAChR antagonism, ACh stimulated, patch clamp; for Emax at 10 µM: maximum percentage antagonism at maximum concentration tested 10 μM
Protocol: Cells expressing human alpha1 nicotinic acetylcholine (nACh) receptor (nAChR) were washed and dissociated using Trypsin containing buffer. Cells were then washed and seeded at a density of 3-5 million cells/mL and allowed to grow for 3 days. Then, 60-80 μL of cells were added to plates and incubated with dose response of an ARM compound of Formula (I) with a top concentration of either 10 μM or 100 μM. The receptor was then stimulated via addition of acetylcholine (ACh) and activation of the receptor was monitored via the IONFlux automated patch clamp system. IonFlux Data Analyzer software was utilized to perform leak subtraction and measure (min) peak current amplitude.
Data processing: (1) Current values recorded for vehicle only applications in individual traps/patterns were subtracted from corresponding current amplitude values for control, test article and control+test article. (2) Control response was calculated as % of the average response of the 3rd out of total 3 ACh (10 mM) applications alone. In rare situations, if the 3rd ACh response was obscured due to technical artifacts, the 2nd and/or 1 st ACh (10 mM) application was considered as control. The peak current amplitude generated in the presence of each test article concentration was then used to calculate the % inhibition as compared to control response (10 mM ACh alone). These estimates were further corrected for vehicle response and run down corrected by normalizing with time matched control responses (10 mM ACh alone). The corrected percentages were then fit with a non-linear function in GraphPad Prism 6 (or later versions) to determine the […].
Exclusion criteria: (i) any n's with poor recording quality, (ii) control current amplitude <500 pA or (iii) significant outliers, as determined by the Grubbs' test.
ARMs compounds of Formula (I) of the invention were tested for antagonism of the nAChR in the above assay in […] experimental runs and the results are shown in Table 7 below. Antagonistic activity of the compounds of Formula (I) of the invention is reported as an IC50 value (half maximal inhibitory concentration) and the maximum percentage antagonism observed at the highest concentration of compound of Formula (I) tested, as indicated in Table 7. For compounds tested in more than one experimental run, the IC50 value is reported as an average.

Chain of human alpha1 nicotinic acetylcholine (nACh) receptor (P02708 21-457): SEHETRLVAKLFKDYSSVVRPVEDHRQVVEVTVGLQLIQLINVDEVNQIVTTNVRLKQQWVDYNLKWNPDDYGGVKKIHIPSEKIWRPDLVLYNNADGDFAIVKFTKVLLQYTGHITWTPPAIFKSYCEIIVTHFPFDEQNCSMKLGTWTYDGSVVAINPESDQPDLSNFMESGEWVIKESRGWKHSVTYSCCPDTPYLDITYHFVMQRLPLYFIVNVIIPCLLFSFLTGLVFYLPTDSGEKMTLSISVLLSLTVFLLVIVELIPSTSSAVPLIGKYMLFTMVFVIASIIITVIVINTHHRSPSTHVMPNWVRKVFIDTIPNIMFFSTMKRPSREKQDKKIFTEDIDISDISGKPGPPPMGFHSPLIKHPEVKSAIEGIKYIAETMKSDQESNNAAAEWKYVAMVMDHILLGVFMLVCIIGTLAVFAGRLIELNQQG
Chain of human alpha1 nicotinic acetylcholine (nACh) receptor (P11230 24-501 partner): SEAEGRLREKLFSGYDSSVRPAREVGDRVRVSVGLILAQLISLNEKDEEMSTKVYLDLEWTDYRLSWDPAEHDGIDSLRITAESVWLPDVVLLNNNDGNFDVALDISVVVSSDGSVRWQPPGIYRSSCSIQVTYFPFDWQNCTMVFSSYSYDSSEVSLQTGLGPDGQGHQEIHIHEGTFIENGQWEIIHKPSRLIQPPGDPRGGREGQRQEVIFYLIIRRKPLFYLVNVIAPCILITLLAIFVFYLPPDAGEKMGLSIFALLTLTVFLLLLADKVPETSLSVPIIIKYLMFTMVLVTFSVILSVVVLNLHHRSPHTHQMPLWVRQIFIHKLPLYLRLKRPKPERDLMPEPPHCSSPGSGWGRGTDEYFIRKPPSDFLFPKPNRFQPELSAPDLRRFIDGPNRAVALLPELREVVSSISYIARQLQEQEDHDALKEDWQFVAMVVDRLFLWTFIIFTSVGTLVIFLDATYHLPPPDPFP
Chain of human alpha1 nicotinic acetylcholine (nACh) receptor (Q07001 22-517): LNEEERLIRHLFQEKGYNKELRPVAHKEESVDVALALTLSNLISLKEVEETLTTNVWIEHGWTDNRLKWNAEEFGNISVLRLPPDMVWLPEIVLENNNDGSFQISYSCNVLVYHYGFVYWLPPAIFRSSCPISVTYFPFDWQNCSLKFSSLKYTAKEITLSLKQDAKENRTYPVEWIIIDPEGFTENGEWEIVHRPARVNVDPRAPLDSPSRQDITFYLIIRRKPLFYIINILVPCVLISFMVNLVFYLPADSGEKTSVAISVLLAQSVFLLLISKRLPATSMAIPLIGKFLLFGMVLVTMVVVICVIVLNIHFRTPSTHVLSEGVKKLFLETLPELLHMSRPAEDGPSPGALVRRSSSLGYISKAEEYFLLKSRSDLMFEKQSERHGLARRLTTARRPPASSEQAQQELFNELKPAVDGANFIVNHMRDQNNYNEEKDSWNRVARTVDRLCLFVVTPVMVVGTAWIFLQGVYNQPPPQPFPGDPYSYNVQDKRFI

pKd of Antibody for ARM Compound of Formula (I) [1]	Emax at 100 µM [3]	IC50 [3]	Emax at 10 µM [3]	Compound	EC50 [2]
9.19	40.5%	> 100000 nM	–	CC(C)N(C)[C@@H]1CC[C@H](N2CC[C@H](Nc3ncnc4ccc(C(F)(F)F)cc34)C2=O)[C@H](NC(=O)[C@H]2CC[C@@H](NC(=O)CCCO[C@H]3CC[C@H](OCCNC(=O)[C@H]4CC(=O)N(C)[C@@H]4c4cccnc4)CC3)CC2)C1 [Example 5]	0.316 nM and 0.386 nM
9.2515	95%	13700 nM	–	CC(C)N(C)[C@@H]1CC[C@H](N2CC[C@H](Nc3ncnc4ccc(C(F)(F)F)cc34)C2=O)[C@H](NC(=O)CCOCCNC(=O)CCCO[C@H]2CC[C@H](OCCNC(=O)[C@H]3CC(=O)N(C)[C@@H]3c3cccnc3)CC2)C1 [Example 7]	0.182 nM
9.4635	–	> 10000 nM	18.2%	CC(C)N(C)[C@@H]1CC[C@H](N2CC[C@H](Nc3ncnc4ccc(C(F)(F)F)cc34)C2=O)[C@H](NC(=O)[C@H]2CC[C@@H](CC(=O)CCCOC[C@H]3CC[C@H](COCCNC(=O)[C@H]4CC(=O)N(C)[C@@H]4c4cccnc4)CC3)CC2)C1 [Example 60]	–
9.146	–	> 10000 nM	23%	CC(C)N(C)[C@@H]1CC[C@H](N2CC[C@H](Nc3ncnc4ccc(C(F)(F)F)cc34)C2=O)[C@H](NC(=O)[C@H]2CC[C@@H](NC(=O)CCCOCCCCOCCNC(=O)[C@H]3CC(=O)N(C)[C@@H]3c3cccnc3)CC2)C1 [Example 122]	–
9.06	–	–	–	CC(C)N(C)[C@@H]1CC[C@H](N2CC[C@H](Nc3ncnc4ccc(C(F)(F)F)cc34)C2=O)[C@H](NC(=O)CCOCCOCCOCCNc2c(NCCNC(=O)[C@H]3CC(=O)N(C)[C@@H]3c3cccnc3)c(=O)c2=O)C1 [Example 168, (2S,3S)-N-(2-((2-((2-(2-(2-(3-(((1R,2S,5R)-5-(Isopropyl(methyl)amino)-2-((S)-2-oxo-3-((6-(trifluoromethyl)quinazolin-4-yl)amino)pyrrolidin-1-yl)cyclohexyl)amino)-3-oxopropoxy)ethoxy)ethoxy)ethyl)amino)-3,4-dioxocyclobut-1-en-1-yl)amino)ethyl)-1-methyl-5-oxo-2-(pyridin-3-yl)pyrrolidine-3-carboxamide]	0.793 nM
8.7865	–	–	–	CC(C)N(C)[C@@H]1CC[C@H](N2CC[C@H](Nc3ncnc4ccc(C(F)(F)F)cc34)C2=O)[C@H](NC(=O)[C@H]2CC[C@@H](NC(=O)COCCOCCNC(=O)CNC(=O)[C@H]3CC(=O)N(C)[C@@H]3c3cccnc3)CC2)C1 [Example 171, (2S,3S)-N-(2-((2-(2-(2-(((1S,4s)-4-(((1R,2S,5R)-5-(Isopropyl(methyl)amino)-2-((S)-2-oxo-3-((6-(trifluoromethyl)quinazolin-4-yl)amino)pyrrolidin-1-yl)cyclohexyl)carbamoyl)cyclohexyl)amino)-2-oxoethoxy)ethoxy)ethyl)amino)-2-oxoethyl)-1-methyl-5-oxo-2-(pyridin-3-yl)pyrrolidine-3-carboxamide]	0.802 nM
9.1415	–	–	–	CC(C)N(C)[C@@H]1CC[C@H](N2CC[C@H](Nc3ncnc4ccc(C(F)(F)F)cc34)C2=O)[C@H](NC(=O)CCCC(=O)NCCCOCCCNC(=O)CCCNC(=O)[C@H]2CC(=O)N(C)[C@@H]2c2cccnc2)C1 [Example 173, N^1-((1R,2S,5R)-5-(Isopropyl(methyl)amino)-2-((S)-2-oxo-3-((6-(trifluoromethyl)quinazolin-4-yl)amino)pyrrolidin-1-yl)cyclohexyl)-N5-(3-(3-(4-((2S,3S)-1-methyl-5-oxo-2-(pyridin-3-yl)pyrrolidine-3-carboxamido)butanamido)propoxy)propyl)glutaramide]	0.794 nM
9.244	–	–	–	CC(C)N(C)[C@@H]1CC[C@H](N2CC[C@H](Nc3ncnc4ccc(C(F)(F)F)cc34)C2=O)[C@H](NC(=O)[C@H]2CC[C@@H](NC(=O)CCOCCNC(=O)COCCCNC(=O)[C@H]3CC(=O)N(C)[C@@H]3c3cccnc3)CC2)C1 [Example 175, (2S,3S)-N-(3-(2-((2-(3-(((1 S,4s)-4-(((1R,2S,5R)-5-(Isopropyl(methyl)amino)-2-((S)-2-oxo-3-((6-(trifluoromethyl)quinazolin-4-yl)amino)pyrrolidin-1-yl)cyclohexyl)carbamoyl)cyclohexyl)amino)-3-oxopropoxy)ethyl)amino)-2-oxoethoxy)propyl)-1-methyl-5-oxo-2-(pyridin-3-yl)pyrrolidine-3-carboxamide]	0.794 nM and 0.398 nM
9.24	–	–	–	CC(C)N(C)[C@@H]1CC[C@H](N2CC[C@H](Nc3ncnc4ccc(C(F)(F)F)cc34)C2=O)[C@H](NC(=O)CCCC(=O)N[C@H]2CC[C@@H](CNC(=O)CCOCCNC(=O)[C@H]3CC(=O)N(C)[C@@H]3c3cccnc3)CC2)C1 [Example 179, N^1-((1R,2S,5R)-5-(isopropyl(methyl)amino)-2-((S)-2-oxo-3-((6-(trifluoromethyl)quinazolin-4-yl)amino)pyrrolidin-1-yl)cyclohexyl)-N^5-((1R,4S)-4-((3-(2-((2S,3S)-1-methyl-5-oxo-2-(pyridin-3-yl)pyrrolidine-3-carboxamido)ethoxy)propanamido)methyl)cyclohexyl)glutaramide]	0.724 nM
9.1645	–	–	–	CC(C)N(C)[C@@H]1CC[C@H](N2CC[C@H](Nc3ncnc4ccc(C(F)(F)F)cc34)C2=O)[C@H](NC(=O)COCCNC(=O)CCNC(=O)CCOCCOCCNC(=O)[C@H]2CC(=O)N(C)[C@@H]2c2cccnc2)C1 [Example 181, (2S,3S)-N-(1-(((1R,2S,5R)-5-(Isopropyl(methyl)amino)-2-((S)-2-oxo-3-((6-(trifluoromethyl)quinazolin-4-yl)amino)pyrrolidin-1-yl)cyclohexyl)amino)-1,7,11-trioxo-3,14,17-trioxa-6,10-diazanonadecan-19-yl)-1-methyl-5-oxo-2-(pyridin-3-yl)pyrrolidine-3-carboxamide]	0.675 nM
9.3835	–	–	–	CC(C)N(C)[C@@H]1CC[C@H](N2CC[C@H](Nc3ncnc4ccc(C(F)(F)F)cc34)C2=O)[C@H](NC(=O)[C@H]2CC[C@@H](NC(=O)CCOCCNC(=O)CCCCNC(=O)[C@H]3CC(=O)N(C)[C@@H]3c3cccnc3)CC2)C1 [Example 198, (2S,3S)-N-(5-((2-(3-(((1S,4s)-4-(((1R,2S,5R)-5-(Isopropyl(methyl)amino)-2-((S)-2-oxo-3-((6-(trifluoromethyl)quinazolin-4-yl)amino)pyrrolidin-1-yl)cyclohexyl)carbamoyl)cyclohexyl)amino)-3-oxopropoxy)ethyl)amino)-5-oxopentyl)-1-methyl-5-oxo-2-(pyridin-3-yl)pyrrolidine-3-carboxamide]	0.398 nM and 0.316 nM
9.111	–	–	–	CC(C)N(C)[C@@H]1CC[C@H](N2CC[C@H](Nc3ncnc4ccc(C(F)(F)F)cc34)C2=O)[C@H](NC(=O)[C@H]2CC[C@@H](NC(=O)COCCNC(=O)CCOCCNC(=O)[C@H]3CC(=O)N(C)[C@@H]3c3cccnc3)CC2)C1 [compound 152]	1.4 nM
9.0085	–	–	–	CC(C)N(C)[C@@H]1CC[C@H](N2CC[C@H](Nc3ncnc4ccc(C(F)(F)F)cc34)C2=O)[C@H](NC(=O)CCOCCOCCOCCNc2c(NCCCNC(=O)[C@H]3CC(=O)N(C)[C@@H]3c3cccnc3)c(=O)c2=O)C1 [compound 169]	1.05 nM
9.249	–	–	–	CC(C)N(C)[C@@H]1CC[C@H](N2CC[C@H](Nc3ncnc4ccc(C(F)(F)F)cc34)C2=O)[C@H](NC(=O)CCCC(=O)N[C@H]2CC[C@H](CNC(=O)CCOCCNC(=O)[C@H]3CC(=O)N(C)[C@@H]3c3cccnc3)CC2)C1 [compound 180]	0.456 nM
